Columns and labels:
[1] = tested on: hCLRN1^N48K-YFP; clrn1^+/+ larvae; assay: Larval survival/lethality by TG or ART dose and treatment duration; assay type: in vivo, zebrafish; details: TG dosages higher than 1 μM or longer treatment duration
Description: Thapsigargin (TG, 1 mg, Sigma-Aldrich, #T9033) stock in 100% DMSO was diluted in E3 medium to make the required final concentration of the drug. Five different concentrations that were earlier reported to induce ER stress and are non-toxic or lower lethal dose (LD50) in the zebrafish (0.1, 0.5, 1.0, 2.5, 5 μM concentrations) were used in this study. A total of 25 larvae per dosage and treatment duration from the genotypes hCLRN1^N48K-YFP; clrn1^+/+ and hCLRN1-YFP; clrn1^+/+, no older than 72 hours post fertilization (hpf) at the start of the experiment, were placed in a well of 12-well uncoated culture plate (BD Falcon, Canaan, CT). […] Unadjusted 1 micron middle section images of four hair bundles per ML1 neuromast of larvae from TG treated and untreated groups were analyzed using Image J software version v. […] Quantification of YFP fluorescence intensity was carried out as described in the previous experiment for unconventional trafficking of hCLRN1^N48K-YFP by hGRASP55 cargos. […]
Arthemisinin (ART, 100 mg, Sigma-Aldrich, #361593) in 100% DMSO was diluted in E3 medium to make the final concentration. […] Quantification of YFP fluorescence intensity was carried out as described in the previous experiment for unconventional trafficking of hCLRN1^N48K-YFP by hGRASP55 cargos. […]

[2] = tested on: hCLRN1^N48K-YFP; clrn1^+/+ larvae; assay: as above; assay type: in vivo, zebrafish; design: key: ‘S’ =Surviving; ‘L’ = Lethal; ‘S/L’ Larvae surviving with apoptosis/necrosis of hair cells
Description: Thapsigargin (TG, 1 mg, Sigma-Aldrich, #T9033) stock in 100% DMSO was diluted in E3 medium to make the required final concentration of the drug. Five different concentrations that were earlier reported to induce ER stress and are non-toxic or lower lethal dose (LD50) in the zebrafish (0.1, 0.5, 1.0, 2.5, 5 μM concentrations) were used in this study. A total of 25 larvae per dosage and treatment duration from the genotypes hCLRN1^N48K-YFP; clrn1^+/+ and hCLRN1-YFP; clrn1^+/+, no older than 72 hours post fertilization (hpf) at the start of the experiment, were placed in a well of 12-well uncoated culture plate (BD Falcon, Canaan, CT). For ER stress induction, larvae were incubated in different dosage of TG from 1 hr to overnight at 28.5° C., followed by three times wash with E3 medium at 28.5° C. (Table 2) and hair cells from the hCLRN1^N48K-YFP; clrn1^+/+ and hCLRN1-YFP; clrn1^+/+ lines were examined for the respective protein distribution pattern in the hair cell bundle and the cell body. Live confocal images of ‘O’ and ‘ML1’ neuromasts per larvae were capture using Leica SP2 confocal microscope with 40× oil immersion objective. Unadjusted 1 micron middle section images of four hair bundles per ML1 neuromast of larvae from TG treated and untreated groups were analyzed using Image J software version v. 1.48 (FIG. 4). The hair bundle trafficked amount of hCLRN1^N48K protein corresponds to the change in YFP intensity in the hair bundle in the TG treated larvae. Quantification of YFP fluorescence intensity was carried out as described in the previous experiment for unconventional trafficking of hCLRN1^N48K-YFP by hGRASP55 cargos. […] Student's t-test was used to confirm the observed changes in the YFP intensity in the hair bundles of TG treatment compared to untreated hCLRN1^N48K-YFP; clrn1^+/+ larvae, is significant (FIG. 4J).
Arthemisinin (ART, 100 mg, Sigma-Aldrich, #361593) in 100% DMSO was diluted in E3 medium to make the final concentration. Five different concentrations within the range of reported ER stress inducing level in the zebrafish (0.1, 0.25, 0.4, 0.5, and 1 μM concentrations) were used in this study. A total of 25 larvae, no older than 72 hpf at the start of the experiment, were placed in a well of 12-well uncoated culture plate (BD 35 Falcon, Canaan, CT). For ER stress induction, larvae were exposed in different dosage of ART for different duration at 28.5° C. (Table 3) and washed three times with E3 medium, and hair cells from the hCLRN1-YFP; clrn1^+/+ larvae and hCLRN1^N48K-YFP; clrn1^+/+ larvae were examined for the respective protein distribution pattern in the hair cell bundle and the cell body. Live confocal Z-stack images of otic ‘O’ and middle ‘ML’ neuromasts per larvae of hCLRN1-YFP; clrn1^+/+ larvae and hCLRN1^N48K-YFP; clrn1^+/+ genotypes from the untreated group in the E3 medium, 0.01% DMSO treatment group and ART treatment group were capture using Leica SP2 confocal microscope at 40× oil immersion objective. Hair cells from 2 otic (0) and 2 middle (ML) neuromasts per larvae were examined for the change in YFP intensity in the hair bundle and cell body. From the captured confocal images of these neuromast hair cells, unadjusted 1 micron middle section images of 4 mature hair bundles from ML1 neuromast per larvae were considered for the YFP intensity quantification in unadjusted ROI covering the middle section of each hair bundles using the imageJ software. […] The hair bundle trafficked amount of hCLRN1^N48K protein corresponds to the change in YFP intensity in the hair bundle in the ART treated larvae. Quantification of YFP fluorescence intensity was carried out as described in the previous experiment for unconventional trafficking of hCLRN1^N48K-YFP by hGRASP55 cargos. Student's t-test was used to confirm the observed changes in the YFP intensity in the hair bundles of ART treatment compared to untreated and TG treated hCLRN1^N48K-YFP; clrn1^+/+ larvae, is significant (FIG. 4J).

C/C=C(/C)C(=O)O[C@H]1C(C)=C2[C@H]([C@@H]1OC(=O)CCCCCCC)[C@@](C)(OC(C)=O)C[C@H](OC(=O)CCC)[C@@]1(O)[C@H]2OC(=O)[C@@]1(C)O [TG, Thapsigargin]
Lethality to larvae [1]: lethal

C[C@@H]1CC[C@H]2[C@@H](C)C(=O)O[C@@H]3O[C@@]4(C)CC[C@@H]1[C@]32OO4 [ART, Artemisinin]
Larvae survival ([2]; ART 0.1 μM, exposure 1 h): S | Larvae survival ([2]; ART 0.1 μM, exposure 2 h): S | Larvae survival ([2]; ART 0.1 μM, exposure 4 h): S | Larvae survival ([2]; ART 0.1 μM, exposure 6 h): S | Larvae survival ([2]; ART 0.1 μM, exposure 8 h): S | Larvae survival ([2]; ART 0.1 μM, exposure 10 h): S | Larvae survival ([2]; ART 0.1 μM, post-exposure recovery time 10 h): S | Larvae survival ([2]; ART 0.1 μM, post-exposure recovery time 24 h): S | Larvae survival ([2]; ART 0.1 μM, post-exposure recovery time 48 h): S | Larvae survival ([2]; ART 0.25 μM, exposure 1 h): S | Larvae survival ([2]; ART 0.25 μM, exposure 2 h): S | Larvae survival ([2]; ART 0.25 μM, exposure 4 h): S | Larvae survival ([2]; ART 0.25 μM, exposure 6 h): S | Larvae survival ([2]; ART 0.25 μM, exposure 8 h): S | Larvae survival ([2]; ART 0.25 μM, exposure 10 h): S | Larvae survival ([2]; ART 0.25 μM, post-exposure recovery time 10 h): S | Larvae survival ([2]; ART 0.25 μM, post-exposure recovery time 24 h): S | Larvae survival ([2]; ART 0.25 μM, post-exposure recovery time 48 h): S | Larvae survival ([2]; ART 0.4 μM, 4 hours exposure group, post-exposure recovery time 10 h): S | Larvae survival ([2]; ART 0.4 μM, 4 hours exposure group, post-exposure recovery time 24 h): S | Larvae survival ([2]; ART 0.4 μM, 4 hours exposure group, post-exposure recovery time 48 h): S | Larvae survival ([2]; ART 0.4 μM, exposure 1 h): S | Larvae survival ([2]; ART 0.4 μM, exposure 2 h): S | Larvae survival ([2]; ART 0.4 μM, exposure 4 h): S | Larvae survival ([2]; ART 0.4 μM, exposure 6 h): S/L

Source: patent US11865103B2, “Methods of treating disorders associated with glycosylation defective proteins” (CASE WESTERN RESERVE UNIVERSITY, priority 2016, dated 2024)
